According to US4698350A, “1-ethyl-6-fluoro-1,4-dihydro- 7-(2,6-dimethyl-4-pyridinyl)-4-oxo-3-quinolinecarboxylic acid and antibacterial use thereof” (Sterling Drug Inc., priority 1984, dated 1987):
Values after ≈ are worked out from the molar mass of the structure shown. Where two headings read alike, the source gives them in different places.

Key:
A. viscosus = experiment: Agar dilution MIC, anaerobic microorganisms; type: cell-based; conditions: Actinomyces viscosus, 48 h
Description: (§1) 1. Maintenance. Prior to use, all strains were maintained in the lyophilized state. During the study, cultures were examined on blood agar basal medium supplemented with 5.0% (v/v) defibrinated rabbit blood. Culture transfer was accomplished weekly with all cultures being incubated in an anaerobic atmosphere (GasPak jar; BBL).
(§2) 2. Agar Medium. The basal test medium consisted of trypticase soy agar (40 g), yeast extract (1 g), glucose (2 g) and 960 ml of distilled water pH 7.2. [Mashimo et al., J. Clin. Micro. 17, 187-191 (1983)]. Subsequent to sterilization and cooling to 50° C., the medium was supplemented with 4% (v/v) defibrinated rabbit blood and 0.5 μg/ml menadione (Vitamin K3) The agent under evaluation was also added at this time to the concentration desired. Subsequent to pouring of the plates, they were permitted to dry at 4° C. for 24 hr.
(§3) 3. Determination of Agent MIC. The minimal inhibitory concentration (MIC) of the various test agents was determined using an agar dilution technique. Agents and appropriate reference compounds were added to achieve a series of concentrations ranging between 32 μg/ml and 0.007 μg/ml. The inocula were prepared from 96-hr. cultures grown on the maintenance medium. Subsequent to a purity evaluation, colonies were removed and suspended in trypticase soy broth supplemented with 5 μg/ml menadione and 2% lysed rabbit blood filtrate to achieve an OD650 of 0.1 (this corresponded to approximately 10^8 cells/ml). Cultures were inoculated aerobically on the modified trypticase soy blood agar plates by use of a Steer's replicator (which delivers about 10^5 cells per spot). The plates were allowed to dry for a time not exceeding 30 min. and then incubated at 37° C. under an atmosphere of […], 10% H2 and 5% CO2 maintained in an anaerobic chamber (Coy Manufacturing Co.) for 48 hr. The MIC was defined as the lowest concentration completely inhibiting growth.
(§4) Tetracycline stock solutions (1 mg/ml) were made subsequent to dissolution in water. Stock solutions (1 mg/ml) of the remaining test compounds were made subsequent to dissolution in 1/10 N NaOH.

B. gingivalis = experiment: Agar dilution MIC, anaerobic microorganisms; type: cell-based; conditions: Porphyromonas gingivalis, 48 h
Description: as §1, §2, §3, §4

F. polymorphum = experiment: Agar dilution MIC, anaerobic microorganisms; type: cell-based; conditions: 48 h
Description: as §1, §2, §3, §4

A. actinomycetemcomitans = experiment: Agar dilution MIC, anaerobic microorganisms; type: cell-based; conditions: Aggregatibacter actinomycetemcomitans, 48 h
Description: as §1, §2, §3, §4

B. melaninogenicus = experiment: Agar dilution MIC, anaerobic microorganisms; type: cell-based; conditions: 48 h
Description: as §1, §2, §3, §4

B. oralis = experiment: Agar dilution MIC, anaerobic microorganisms; type: cell-based; conditions: Hoylesella oralis, 48 h
Description: as §1, §2, §3, §4

Eikenella corrodens = experiment: Agar dilution MIC, anaerobic microorganisms; type: cell-based; conditions: 48 h
Description: as §1, §2, §3, §4

F. nucleatum = experiment: Agar dilution MIC, anaerobic microorganisms; type: cell-based; conditions: Fusobacterium nucleatum, 48 h
Description: as §1, §2, §3, §4

B. intermedius = experiment: Agar dilution MIC, anaerobic microorganisms; type: cell-based; conditions: Prevotella intermedia, 48 h
Description: as §1, §2, §3, §4

Capnocytophaga suptigena = experiment: Agar dilution MIC, anaerobic microorganisms; type: cell-based; conditions: 48 h
Description: as §1, §2, §3, §4

B. fragilis = experiment: Agar dilution MIC, anaerobic microorganisms; type: cell-based; conditions: Bacteroides fragilis, 48 h
Description: as §1, §2, §3, §4

periodontal diseases = conditions: cited from earlier work; for usefulness in treating periodontal disease (in words): Genco 1981
Campylobacter sputorum = experiment: Agar dilution MIC, anaerobic microorganisms; type: cell-based; conditions: 48 h
Description: as §1, §2, §3, §4

Wolinella recta = experiment: Agar dilution MIC, anaerobic microorganisms; type: cell-based; conditions: Campylobacter rectus, 48 h
Description: as §1, §2, §3, §4

[1] = system: all thirteen of the target anaerobic microorganisms; experiment: Antimicrobial activity against anaerobic microorganisms; type: cell-based
Description: as §1, §2, §3, §4

[2] = A. actinomycetemcomitans, read-out: MIC
[3] = B. melaninogenicus, read-out: MIC
[4] = Capnocytophaga suptigena, read-out: MIC

CN(C)C1C(=O)C(C(N)=O)=C(O)C2(O)C(=O)C3=C(O)c4c(O)cccc4C(C)(O)C3CC12 (centres unmarked) [9,424]
MIC (A. viscosus): 2 µg/mL (≈ 4.5 µM)
MIC (B. gingivalis): 0.12 µg/mL (≈ 0.27 µM)
MIC (F. polymorphum): 0.12 µg/mL (≈ 0.27 µM)
MIC (A. actinomycetemcomitans): 1 µg/mL (≈ 2.25 µM)
MIC (B. melaninogenicus): 0.5 µg/mL (≈ 1.13 µM)
MIC (B. oralis): 0.12 µg/mL (≈ 0.27 µM)
MIC (Eikenella corrodens): 2 µg/mL (≈ 4.5 µM)
MIC (F. nucleatum): 0.75 µg/mL (≈ 1.69 µM)
MIC (B. intermedius): 2 µg/mL (≈ 4.5 µM)
MIC (Capnocytophaga suptigena; Capnocytophaga): 1 µg/mL (≈ 2.25 µM)
MIC (B. fragilis): 1 µg/mL (≈ 2.25 µM)
usefulness in treating periodontal disease (in words) (periodontal diseases): particularly useful
activity against microorganisms considered to participate in periodontal disease (in words) (periodontal diseases): not active against all the microorganisms

CCn1cc(C(=O)O)c(=O)c2ccc(-c3ccncc3)cc21 [35,213, 1-ethyl-1,4-dihydro-4-oxo-7-(4-pyridinyl)-3-quinolinecarboxylic acid]
MIC (A. viscosus; A. viscosus, read-out: MIC): > 10 µg/mL
MIC (B. gingivalis; B. gingivalis, read-out: MIC): > 10 µg/mL
MIC (F. polymorphum; F. polymorphum, read-out: MIC): > 10 µg/mL
MIC (A. actinomycetemcomitans; [2]): 0.12 µg/mL (≈ 0.408 µM)
MIC (B. melaninogenicus; [3]): 8 µg/mL (≈ 27.2 µM)
MIC (Campylobacter sputorum): > 10 µg/mL
MIC (B. oralis; B. oralis, read-out: MIC): > 10 µg/mL
MIC (Eikenella corrodens; read-out: MIC): 8 µg/mL (≈ 27.2 µM)
MIC (F. nucleatum; F. nucleatum, read-out: MIC): > 10 µg/mL
MIC (B. intermedius; B. intermedius, read-out: MIC): 0.5 µg/mL (≈ 1.7 µM)
MIC (Capnocytophaga suptigena; [4]): 1 µg/mL (≈ 3.4 µM)
MIC (Wolinella recta): 0.5 µg/mL (≈ 1.7 µM)
MIC (B. fragilis; B. fragilis, read-out: MIC): > 10 µg/mL

CCn1cc(C(=O)O)c(=O)c2cc(F)c(N3CCN(C)CC3)cc21 [50,150, 1-ethyl-6-fluoro-1,4-dihydro-7-(4-methyl-1-piperazinyl)-4-oxo-3-quinolinecarboxylic acid]
antimicrobial activity (in words) [1]: less active
MIC (A. viscosus; A. viscosus, read-out: MIC): > 10 µg/mL
MIC (B. gingivalis; B. gingivalis, read-out: MIC): 4 µg/mL (≈ 12 µM)
MIC (F. polymorphum; F. polymorphum, read-out: MIC): 8 µg/mL (≈ 24 µM)
MIC (A. actinomycetemcomitans; [2]): 0.06 µg/mL (≈ 0.18 µM)
MIC (B. melaninogenicus; [3]): 4 µg/mL (≈ 12 µM)
MIC (Campylobacter sputorum): 4 µg/mL (≈ 12 µM)
MIC (B. oralis; B. oralis, read-out: MIC): 4 µg/mL (≈ 12 µM)
MIC (Eikenella corrodens; read-out: MIC): 4 µg/mL (≈ 12 µM)
MIC (F. nucleatum; F. nucleatum, read-out: MIC): 8 µg/mL (≈ 24 µM)
MIC (B. intermedius; B. intermedius, read-out: MIC): 0.5 µg/mL (≈ 1.5 µM)
MIC (Capnocytophaga suptigena; [4]): 0.25 µg/mL (≈ 0.75 µM)
MIC (Wolinella recta): 0.25 µg/mL (≈ 0.75 µM)
MIC (B. fragilis; B. fragilis, read-out: MIC): 8 µg/mL (≈ 24 µM)

CCn1cc(C(=O)O)c(=O)c2cc(F)c(N3CCNCC3)cc21 [50,297, 1-ethyl-6-fluoro-1,4-dihydro-4-oxo-7-(1-piperazinyl)-3-quinolinecarboxylicacid]
antimicrobial activity (in words) [1]: less active
MIC (A. viscosus; A. viscosus, read-out: MIC): > 10 µg/mL
MIC (B. gingivalis; B. gingivalis, read-out: MIC): 4 µg/mL (≈ 12.5 µM)
MIC (F. polymorphum; F. polymorphum, read-out: MIC): > 10 µg/mL
MIC (A. actinomycetemcomitans; [2]): 0.06 µg/mL (≈ 0.188 µM)
MIC (B. melaninogenicus; [3]): 4 µg/mL (≈ 12.5 µM)
MIC (Campylobacter sputorum): 2 µg/mL (≈ 6.26 µM)
MIC (B. oralis; B. oralis, read-out: MIC): 4 µg/mL (≈ 12.5 µM)
MIC (Eikenella corrodens; read-out: MIC): 4 µg/mL (≈ 12.5 µM)
MIC (F. nucleatum; F. nucleatum, read-out: MIC): 8 µg/mL (≈ 25.1 µM)
MIC (B. intermedius; B. intermedius, read-out: MIC): 0.5 µg/mL (≈ 1.57 µM)
MIC (Capnocytophaga suptigena; [4]): 0.5 µg/mL (≈ 1.57 µM)
MIC (Wolinella recta): 0.12 µg/mL (≈ 0.376 µM)
MIC (B. fragilis; B. fragilis, read-out: MIC): > 10 µg/mL

Cc1ncc([N+](=O)[O-])n1CCO [metronidazole]
usefulness in treating periodontal disease (in words) (periodontal diseases): particularly useful
activity against microorganisms considered to participate in periodontal disease (in words) (periodontal diseases): not active against all the microorganisms
